Marks after values point to notes of the source that are not given here.
Assays:
[1] = system: Keratinocytes; test: Prevention against skin cell death and aging (X-Gal staining, flow cytometer), keratinocytes; format: cell-based, mouse
Experimental: (§1) Skin tissue was taken from a red skin mouse 3 days or less old. Hypodermic tissue was removed and the skin was treated with 0.25% trypsin for 12 hours. The skin was separated into the epidermis and the dermis. The epidermis was cultured to 75% confluence in an epidermis culture medium (K-SFM). The dermis was further treated with trypsin at 37° C. for 2 hours. Fibroblasts were taken from the dermis and cultured to 75% confluence in a DMEM culture medium containing 10% serum. Cell growth and division status was confirmed by specifically staining cell DNA. β-Gal is a material for specifically marking aged skin cells. Young cells and cells in the resting phase are left intact and only aged cells are specifically stained. Cultured keratinocytes and fibroblasts were treated with a minimum amount of X-Gal, respectively, and stained at 37 for 24 hours. Aged skin cells were stained to deep blue in 2-4 hours and gave the best result in 12-16 hours (see Proc. Natl. Acad. Sci. USA, 1995, 92: 9363-7). Then, stained cells (aged cells), living cells and dead cells were counted with a flow cytometer. In Table 4, “blank” refers to the control group containing no cells.

[2] = system: hairless mice; test: Prevention of DNA impairment caused by UV (in vivo); settings: after 6 days 1 J UVB
Experimental: Prevention effect (%)=(Control value−Test value)/(Control value)×100 [Equation 2] Paeoniflorin dissolved in 80% ethanol was applied to the back of hairless mice. After 6 days, 1 J UVB was irradiated. Skin cells were taken and DNA impairment was measured.

[3] = system: hairless mice; test: Prevention of wrinkles caused by UV; format: in vivo; settings: 0.2% in 1,3-butylene glycol; UV 2MED, 12 weeks, three days a week
Experimental: Prevention effect of wrinkles caused by UV of paeoniflorin prepared in Preparation Example 1 was evaluated as follows using hairless mice. UV was irradiated to hairless mice with a solar stimulator at 2MED (minimum erythema dose). Irradiation was performed for 12 weeks, three days a week. Of the total of 10 mice, 0.2% paeoniflorin dissolved in 1,3-butylene glycol was applied to the sample treatment group and only 1,3-butylene glycol was applied to the control group. Wrinkles of each group were compared 12 weeks later.

[4] = system: SOD (superoxide dismutase); test: Guinea pig back skin application for 30 days: SOD (nitrate reduction method); format: in vivo; settings: 3 (w/v)% sample, Content by Equation 1 relative to blank group
Experimental: (§2) 10 g of stearic acid (C18H36O2), 70 mL of water and 20 mL of glycerol, each heated to 80, were mixed homogeneously. After stirring for about 1 minute, 3 (w/v)% of paeoniflorin or vitamin E (positive control group) was added. After adding 0.1 (w/v)% of methyl paraben, stirring was performed for 1 minute. 1 mL of KOH was slowly added. After considerable emulsification had proceeded, stirring was performed until the temperature reached about 50.
(§3) Guinea pigs were grouped, each group consisting of 3 males and 3 females. An area of 3×3 cm^2 was shaved from the back of each guinea pig. For each guinea pig, the left side was treated with the sample prepared above and the right side was treated as a negative control group and a positive control group. Application was performed at 8:00 H and 16:00 H each day. Application was performed for 30 days, at about 5 mg/cm^2 each. On the 31st day, skin was taken from the back of each animal. Subcutaneous fat tissue was removed and collagen and lipid peroxide contents were measured with […]. 3) Result
(§4) SOD (superoxide dismutase) and GSH-Px (total glutathione peroxidase) are important antioxidative enzymes in living organisms. […]
(§5) MDA was detected using thiobarboturic acid. GSH-Px and SOD contents were measured by DNTB (5,5′-dithio-bis-2-nitrobenzoic acid) and nitrate reduction methods, respectively. […]

[5] = system: GSH-Px (total glutathione peroxidase); test: Guinea pig back skin application for 30 days: GSH-Px (DNTB method); format: in vivo; settings: 3 (w/v)% sample, Content by Equation 1 relative to blank group
Experimental: as §2, §3, §4, §5

[6] = system: guinea pig back skin; test: Guinea pig back skin application for 30 days: appearance, histology, collagen (HYP) content; format: in vivo; settings: 3 (w/v)% sample; for Increase of collagenous fiber bundles (%) / Increase of collagen content in dermis (%): about 5 mg/cm^2 twice a day; for Increase of collagen content in dermis (%): HYP content
Experimental: as §2, §3
Back skin tissue was impregnated with paraffin and stained with HE (hematoxylin-eosin). Change of the skin tissue was observed. Skin collagen content was determined by adding 6 N hydrochloric acid to skin and measuring the HYP (hydroxyproline) content according to the chloramine-T oxidation method.

[7] = system: normal human keratinocytes; test: Prevention of DNA impairment caused by UV (electrophoresis tail moment) in cultured keratinocytes; format: cell-based; settings: for Average tail moment (n = 50) / Prevention effect (%): 12 hours, then 60 mJ UVB
Experimental: Prevention effect of DNA impairment caused by UV of paeoniflorin prepared in Preparation Example 1 was determined for normal human skin keratinocytes.
Cultured normal human keratinocytes were treated with paeoniflorin of concentrations thereof for 12 hours. The culture medium was removed and the cells were washed with PBS. 60 mJ UVB was irradiated and DNA impairment of the cells was checked. If there is DNA strand breakage inside the cell nucleus, an extended tail is shown toward the positive electrode during electrophoresis. Thus, impairment of DNA can be easily detected by electrophoresis. The average of tail moment of 50 randomly selected cells was used as a control value. The tail moment of paeoniflorin-treated cells was averaged. The control value and the resultant test value were put in Equation 2 below to calculate paeoniflorin's prevention effect of DNA impairment caused by UV.
Prevention effect (%)=(Control value−Test value)/(Control value)×100 [Equation 2]

[8] = system: MDA (malondialdehyde); test: Guinea pig back skin application for 30 days: lipid peroxide MDA (thiobarboturic acid); format: in vivo; settings: 3 (w/v)% sample, Content by Equation 1 relative to blank group
Experimental: as §2, §3, §4, §5

[9] = system: fibroblasts; test: Effect on fibroblast cell activity (MTT analysis); format: cell-based, mouse; settings: non-treated = 0
Experimental: Skin tissue was taken from a red skin mouse 3 days or less old. Hypodermic tissue was removed and the skin was treated with 0.25% trypsin for 12 hours. The skin was separated into the epidermis and the dermis. The epidermis was cultured to 75% confluence in an epidermis culture medium (K-SFM). The dermis was further treated with trypsin at 37° C. for 2 hours. Fibroblasts were taken from the dermis and cultured to 75% confluence in a DMEM culture medium containing 10% serum. Paeoniflorin prepared in Preparation Example 1 was dissolved in the cultured keratinocytes and fibroblasts and treated to 0.0004 M. Cell count was measured by MTT [3-(4,5-dimethylthiazol-2-yl)-2,5-diphenyltetrazolium bromide)] analysis to determine cell activity. A non-treated group and a group treated with 0.002 M vitamin C were tested as control groups.

[10] = system: fibroblasts; test: Prevention against skin cell death and aging (X-Gal staining, flow cytometer), fibroblasts; format: cell-based, mouse
Experimental: as §1

[11] = 0.01% in 80% ethanol applied to the back
[12] = 0.1% in 80% ethanol applied to the back
[13] = 1% in 80% ethanol applied to the back

C[C@@]12C[C@@]3(O)O[C@@H](O1)[C@]1(COC(=O)c4ccccc4)[C@H]3C[C@@]12O[C@@H]1O[C@H](CO)[C@@H](O)[C@H](O)[C@H]1O [Paeoniflorin]
Cell aging rate ([1]; 0.0005 M): 24.7% | Cell death rate ([1]; 0.0005 M): 12.3% | Cell growth rate ([1]; 0.0005 M): 55.3% | Average tail moment (n = 50) [2, 11]: 14.968 ± 5.883 | Prevention effect (%) [2, 11]: 40.9% | Average tail moment (n = 50) [2, 12]: 18.930 ± 5.969 | Prevention effect (%) [2, 12]: 25.3% | Average tail moment (n = 50) [2, 13]: 18.363 ± 5.463 | Prevention effect (%) [2, 13]: 27.5% | Not improved (number of mice, wrinkles compared to the control group) [3]: 0 | Significantly improved (number of mice, wrinkles compared to the control group) [3]: 6 | Slightly improved (number of mice, wrinkles compared to the control group) [3]: 4 | SOD [4]: 8.58* | GSH-Px [5]: 29.51* | Cell organelles observed in the dermis [6]: Expansion of RER (rough endoplasmie reticulum) and increase of mitochondria | Histological observation (HE): change in the dermis [6]: an increase in collagenous fiber bundles was observed in the dermis | Histological observation (HE): change in the epidermis [6]: no significant change in the epidermis | Observation with the naked eyes of treated skin [6]: significant apparent improvement, such as soft and shiny skin | Increase of collagenous fiber bundles (%) [6]: 18.1* % | Increase of collagen content in dermis (%) [6]: 35.92* % | Average tail moment (n = 50) ([7]; 0.0001%): 7.951 ± 1.887 | Prevention effect (%) ([7]; 0.0001%): 16.9% | Average tail moment (n = 50) ([7]; 0.001%): 7.710 ± 2.161 | Prevention effect (%) ([7]; 0.001%): 19.4% | Average tail moment (n = 50) ([7]; 0.01%): 7.409 ± 2.395 | Prevention effect (%) ([7]; 0.01%): 22.6% | Average tail moment (n = 50) ([7]; 0.1%): 7.320 ± 2.534 | Prevention effect (%) ([7]; 0.1%): 23.5% | DNA impairment prevention effect ([7]; treatment concentration range of 0.0001% to 0.1%): at least 16.9% | MDA [8]: 29.57* | Increase in cell activity (%) ([9]; 0.0004 M): 25.7% | Cell aging rate ([10]; 0.0005 M): 17.2% | Cell death rate ([10]; 0.0005 M): 11.5% | Cell growth rate ([10]; 0.0005 M): 18.4%

O=C1O[C@H]([C@@H](O)CO)C(O)=C1O [vitamin C, reference compound]
Increase in cell activity (%) ([9]; 0.002 M): 14.4%

Vitamin E [reference compound]
Cell aging rate ([1]; 0.0004 M): 20.1% | Cell death rate ([1]; 0.0004 M): 10.5% | Cell growth rate ([1]; 0.0004 M): 23.3% | SOD [4]: 7.17* | GSH-Px [5]: 28.60* | Increase of collagenous fiber bundles (%) [6]: 10.4* % | Increase of collagen content in dermis (%) [6]: 29.86* % | MDA [8]: 26.71* | Cell aging rate ([10]; 0.0004 M): 22.8% | Cell death rate ([10]; 0.0004 M): 15.4% | Cell growth rate ([10]; 0.0004 M): 9.96%
